Experimental data published in patent publication US5407823A, “Polypeptides having a dopaminergic receptor activity, nucleic acids coding for these polypeptides and use of these polypeptides for the screening of substances active on these polypeptides” (priority 1990, dated 1995).
Like-named read-outs stand apart in the source and are kept apart here.

Columns and labels:
[1] = test system: D-2 receptor; assay: 7 OHDPAT-3H specific binding to membranes of CHO cells expressing the D-2 receptor; set-up: species or system rat; details: increasing concentrations of radioligand
[2] = molecular target: T1, D-2 receptor expressed in CHO cells (Rattus norvegicus, UniProt P61169); assay: Inhibition of 125I-iodosulpride binding to membranes of transfected CHO cells (D-2); details: for Kd: saturation kinetics at equilibrium, permanently transfected CHO cells
T1 construct: expressed in transfected cells
Description: (§1) As far as the measurement of the affinity of the agonists or antagonists towards the polypeptides of the invention is concerned, it may be made under the following conditions:
(§2) The terms agonists and antagonists refer to the actions of the medicines on the D-2 receptors.
(§3) The β2 adrenergic receptor is excised from pSV β2 -MDH by digestions with HindIII and EcoRI and replaced by a SmaI-EcoRI restriction fragment of the clone of the D-2A receptor by using a blunt-ended HindIII nucleotide adaptor leading to the plasmid pSV D-2. The vector needed to express the D-3 receptor is obtained by replacing the HindIII-BglII restriction fragment of pSV D-2 by a EcoRI-BglII restriction fragment of the clone RT-PCR B, by using a HindIII-EcoRI oligonucleotide adaptor leading to the plasmid pSV D-3. […] The stable transfectants are selected in a culture medium (Dulbecco's Modified Eagle medium) not containing hypoxanthine and thymidine.

[3] = molecular target: T2, D-3 receptor expressed in CHO cells (Rattus norvegicus, UniProt P19020); assay: Inhibition of 125I-iodosulpride binding to membranes of transfected CHO cells (D-3); details: for Ratio Ki D-2/Ki D-3: D-2 and D-3 receptors expressed in CHO cells
T2 construct: expressed in transfected cells
Description: as §1, §2, §3

[4] = competition with 125I-iodosulpride, CHO cell membranes, mean ± standard deviation, 2-3 experiments, read-out: Ki Value D-3 receptor
[5] = competition with 125I-iodosulpride, CHO cell membranes, mean ± standard deviation, 2-3 experiments, read-out: Ki Value D-2 receptor

T1 sequence (P61169 whole entry): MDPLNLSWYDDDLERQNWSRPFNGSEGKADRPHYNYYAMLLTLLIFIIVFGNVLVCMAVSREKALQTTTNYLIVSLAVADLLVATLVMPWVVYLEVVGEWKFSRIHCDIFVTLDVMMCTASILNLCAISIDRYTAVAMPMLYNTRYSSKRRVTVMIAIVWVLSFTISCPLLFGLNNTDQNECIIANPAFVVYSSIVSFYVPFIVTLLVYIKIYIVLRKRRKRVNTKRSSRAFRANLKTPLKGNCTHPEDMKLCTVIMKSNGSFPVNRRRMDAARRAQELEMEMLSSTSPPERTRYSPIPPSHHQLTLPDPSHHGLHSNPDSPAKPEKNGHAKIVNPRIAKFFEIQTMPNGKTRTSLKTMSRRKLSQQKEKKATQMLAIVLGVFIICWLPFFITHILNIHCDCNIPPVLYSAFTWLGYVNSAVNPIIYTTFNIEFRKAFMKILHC
T2 sequence (P19020 whole entry): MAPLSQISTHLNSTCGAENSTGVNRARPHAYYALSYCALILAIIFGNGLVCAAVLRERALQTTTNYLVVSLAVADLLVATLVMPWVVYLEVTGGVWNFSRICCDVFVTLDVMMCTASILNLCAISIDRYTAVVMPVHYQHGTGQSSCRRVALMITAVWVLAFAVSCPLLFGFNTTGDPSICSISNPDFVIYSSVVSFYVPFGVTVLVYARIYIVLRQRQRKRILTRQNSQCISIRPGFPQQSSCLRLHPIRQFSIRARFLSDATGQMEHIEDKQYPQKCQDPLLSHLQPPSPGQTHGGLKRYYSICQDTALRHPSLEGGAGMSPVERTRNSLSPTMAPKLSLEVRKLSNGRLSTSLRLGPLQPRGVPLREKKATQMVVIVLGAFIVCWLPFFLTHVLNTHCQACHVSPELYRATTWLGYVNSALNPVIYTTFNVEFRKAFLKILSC

Molecule	Comparison of affinities for D-2 and D-3 receptors (in words) [3]	Ratio Ki D-2/Ki D-3 [3]	Ki [3, 4]	further results
CCCN(CCC)C1CCc2ccc(O)cc2C1 (stereo not drawn) [7 OHDPAT-^3 H, 7-hydroxy N,N'-dipropylaminotetraline radiolabelled with tritium]	–	–	–	Binding to membranes of cells expressing the D-2 receptor [1]: only very slightly
CCCN[C@@H]1CCc2c(OC)cccc2[C@@H]1C [(+)AJ 76]	somewhat but significantly higher affinities for the D-3 receptor than the D-2 receptor	3.0	91 ± 5 nM	Ki [2]: 270 ± 14 nM
CCCN(CCC)[C@@H]1CCc2c(OC)cccc2[C@@H]1C [(+)UH 232]	somewhat but significantly higher affinities for the D-3 receptor than the D-2 receptor	4.4	–	Ki [2]: 40 ± 1 nM; Ki [3]: 9.2 ± 0.1 nM
CN1CCc2cccc3c2[C@H]1Cc1ccc(O)c(O)c1-3 [Apomorphine]	–	–	–	Ki ([3]; read-out: Ki Value D-3 receptor): 20 ± 3 nM
CC(C)C[C@H]1C(=O)N2CCC[C@H]2[C@]2(O)O[C@](NC(=O)[C@@H]3C=C4c5cccc6[nH]c(Br)c(c56)C[C@H]4N(C)C3)(C(C)C)C(=O)N12 [Bromocriptine]	–	0.7	7.4 ± 1.3 nM	Ki [2, 5]: 5.3 ± 0.6 nM
NCCc1ccc(O)c(O)c1 [Dopamine]	–	–	–	Effect of Gpp(NH)p on displacement curve, D-2 receptor ([2]; presence of Gpp(NH)p): shifted to the right
CCCN1C[C@H](CSC)C[C@@H]2c3cccc4[nH]cc(c34)C[C@H]21 [Pergolide]	much less affinity for the D-3 receptor than for the D-2 receptor	–	–	–
CCN1CCC[C@H]1CNC(=O)c1c(O)c(Cl)cc(Cl)c1OC [Raclopride]	–	–	3.5 ± 0.3 nM	–
Oc1cc2c(cc1O)C(c1ccccc1)CNCC2 (stereo not drawn) [SKF 38393]	–	–	–	Ki [3]: 5000 nM
CN(C)C1CCc2cc(O)c(O)cc2C1 (stereo not drawn) [TL 99]	much less affinity for the D-3 receptor than for the D-2 receptor	–	–	–
CN1CCN(CCCN2c3ccccc3Sc3ccc(S(=O)(=O)N(C)C)cc32)CC1 [Thioproperazine]	–	–	1.7 ± 0.1 nM	Ki [2, 5]: 0.21 ± 0.01 nM
Iodosulpride	–	0.52	–	Kd [2]: 0.61 ± 0.05 nM; Kd ([2]; listed as 125 I-iodosulpride): 0.6 nM; Kd ([3]; saturation kinetics at equilibrium, permanently transfected CHO cells): 1.2 ± 0.2 nM
